Source: patent US20240050477A1, “LIPID NANOPARTICLE” (NATIONAL UNIVERSITY CORPORATION HOKKAIDO UNIVERSITY, priority 2021, published 2024)

Columns and labels:
[1] = pKa of lipid nanoparticle measured using TNS; format: physicochemical; conditions: apparent pKa of the pH-sensitive cationic lipid constituting a lipid nanoparticle
Protocol: The pKa of lipid nanoparticles was measured using […] (TNS). TNS (final concentration: 0.75 mM) and the lipid nanoparticles (final concentration: 30 mM) were first mixed in a buffer solution adjusted to each pH. The fluorescence intensity of the prepared mixed solution was measured using a microplate reader.

[2] = tested on: GAPDH mRNA in NK-92 cells; assay: GAPDH gene knockdown activity of siGAPDH-encapsulated lipid nanoparticle in NK-92 cells (RT-qPCR); format: cell-based, human; conditions: siGAPDH-encapsulated LNP, siRNA 10-90 nM, 24 hours after transfection
Protocol: A NK cell line (NK-92 or NK-92MI) was transfected with each lipid nanoparticle. The knockdown activity of the siGAPDH- or siSMAD3-encapsulated lipid nanoparticle was examined by RT-qPCR using RNA extracted from the cells 24 hours later as a template.
First, the NK cell line was recovered into a 50 mL tube and centrifuged (130×g, 4° C., 5 min). The supernatant was removed, and the cells were suspended in 10 mL of a culture medium (Opti-MEM), counted, and then resuspended into 4×10^6 cells/mL in a culture medium. […]
The cells were recovered into a 1.5 mL tube from each well and centrifuged (800×g, 4° C., 3 min). […] Then, absorbance was measured using micro-volume spectrophotometer “Nano drop” (manufactured by Thermo Fisher Scientific Inc.) to measure the concentration and purity of the RNA.
Reverse-transcription reaction was performed with the recovered RNA as a template using an oligo dT primer and a random primer (6 mars) in a kit for reverse-transcription reaction (“PrimeScript RT reagent kit”, manufactured by Takara Bio Inc.). Then, a GAPDH or SMAD3 mRNA level was measured by real-time PCR with the obtained cDNA as a template using relative quantification based on the ΔΔCt method and β-actin (ACTB) as an endogenous gene. […]

pKa [1]	Compound	GAPDH gene knockdown activity ([GAPDH mRNA level]/[ACTB mRNA level]) [2]
6.35	CCCCCCCC/C=C\CCCCCCCC(=O)OCCCCCCC(O)(CCCCCCOC(=O)CCCCCCC/C=C\CCCCCCCC)CCCCN(CCC)CCC [CL4H6]	–
8.2	CCCCCCCC/C=C\CCCCCCCC(=O)OCCCCCCC(O)(CCCCCCOC(=O)CCCCCCC/C=C\CCCCCCCC)CCCCN(C)C [CL1H6]	high gene knockdown activity at a small content ratio
7.3	CCCCCCCC/C=C\CCCCCCCC(=O)OCCCCCCC(O)(CCCCCCOC(=O)CCCCCCC/C=C\CCCCCCCC)CCCCOC(=O)C1CCN(C)CC1 [CL15H6]	–
8.2	CCCCC/C=C\C/C=C\CCCCCCCCC(O)(CCCCCCCC/C=C\C/C=C\CCCCC)CCCCN(C)C [YSK12-C4]	–
